Measured values taken from US20140303163A1, “USE OF KINASE INHIBITORS IN PREVENTING AND TREATING INFLAMMATORY DISORDER” (priority 2011, published 2014).
Entries after “also recorded” stand apart in the source; their conditions may differ.

Key:
[1] = target: T1, TSSK1 (Homo sapiens, UniProt Q9BXA7); experiment: Kinase assay TSSK1; settings: read-out: Target biochemical activity IC50, TSSK1
T1 sequence (Q9BXA7 1-367): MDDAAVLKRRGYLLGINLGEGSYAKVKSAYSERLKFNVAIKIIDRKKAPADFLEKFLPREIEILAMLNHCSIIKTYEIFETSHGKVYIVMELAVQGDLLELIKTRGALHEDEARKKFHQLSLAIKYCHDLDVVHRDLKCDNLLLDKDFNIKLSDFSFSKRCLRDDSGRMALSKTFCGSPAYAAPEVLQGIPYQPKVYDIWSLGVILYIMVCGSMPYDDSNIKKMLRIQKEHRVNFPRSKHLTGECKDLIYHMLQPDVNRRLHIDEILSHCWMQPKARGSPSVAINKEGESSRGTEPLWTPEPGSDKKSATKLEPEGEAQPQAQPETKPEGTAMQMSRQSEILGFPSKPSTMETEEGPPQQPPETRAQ

[2] = tested on: THP-1; experiment: Cellular effect in mammalian cells, THP-1; assay type: cell-based; settings: Homo sapiens
[3] = tested on: HT29; experiment: Cellular effect in mammalian cells, HT29; assay type: cell-based; settings: Homo sapiens, HT-29
[4] = tested on: L02; experiment: Cellular effect in mammalian cells, L02; assay type: cell-based; settings: Homo sapiens
[5] = tested on: MCF-7 cells; experiment: Cell apoptosis assay (TUNEL, PARP Western blot); assay type: cell-based; settings: 48 hours, TUNEL and PARP Western blot
Experimental: (§1) MCF-7 cells were treated with compound 18 (F200) and Roscovitine for 48 hours. Then the cells were analyzed by TUNEL assay and Western blot to detect apoptosis.
For TUNEL assay, cells were fixed and blocking in 6-well plate. DNA strand breaks were labeled by terminal deoxynucleotidyl transferase (TdT), which catalyzed polymerization of labeled nucleotides to free 3′-OH DNA ends in template-independent manner Fluorescein could be detected by anti-fluorescein antibody, conjugated with horse-radish-peroxidase (POD). After DAB reaction, stained cells were analyzed and counted under light microscope.
(§2) For Western blot, cells were harvested and lysed by lysis buffer. Western blot were performed with anti-PARP or anti-Pol[…] II antibody. During apoptosis, PARP is cleaved from a 113KD intact form into smaller 89KD and 24KD fragments.

[6] = tested on: CDK9's activity on Pol II phosphorylation; experiment: Western blot of Pol II phosphorylation; assay type: cell-based; settings: MCF-7 cells, 48 hours
Experimental: as §1, §2

[7] = Preliminary toxicology study in mice (acute toxicity); assay type: in vivo; settings: mouse, in vivo, po, p.o. (gavage), two weeks
Experimental: (§3) Preliminary toxicology study in mice: Mice were divided into four groups (n=10 in each), 500 mg/kg, 1,000 mg/kg or 2,000 mg/kg were administered respectively to three groups by gavage. Negative control is 0.5% CMC-Na. After two weeks, mice were sacrificed and tissue section of visceral organs were analyzed by Hematoxylin-Eosin staining

[8] = tested on: mice; experiment: as above; assay type: in vivo; settings: p.o.
Experimental: as §3

[9] = PK profile: rat IV/PO study; assay type: in vivo; settings: oral administration
[10] = tested on: lung carcinoma (H460); experiment: Tumor growth inhibition, H460 xenograft; assay type: in vivo, SCID-bg mice; settings: 150 mg/kg, oral administration
Experimental: Animal: SCID-bg mice Tumor type: lung carcinoma (H460) Treatment: Single PO dose for 21 days (starting at day 7 following tumor inoculation) Endpoint: tumor volume and mean luciferase activity by Xenogen (Caliper) machine: SCID-bg mice were implanted with NCI-H460 cells at 5×10^6 cells/mouse on Day 0. Compound 18 treatment began on Day 7. […] In model group, the vehicle was used instead of compound 18. Tumor volume and mean luciferase activity by Xenogen technology were measured once per there days.

[11] = tested on: rabbit neutrophils; experiment: Induction of neutrophil apoptosis (Annexin-V and PI staining); assay type: cell-based
Experimental: • 1. Acquire 5-10 ml blood from adult rabbit • 2. Isolate neutrophils using RED BLOOD CELL LYSING BUFFER (SIGMA Cat No. R7757) and rabbit isolation kit (TBDsciences, Cat No. LZS11133) • 3. Treat neutrophils with reference compounds or SG45 for 15 h • 4. Apoptosis assay (Annexin-V and PI staining)
Harvest neutrophils by centrifugation at 1,000 rpm, 4° C. for 7 min Remove culture medium after centrifugation. Wash the cell pellet with pre-cooled PBS 200 l once. The re-suspend the cells with pre-cooled PBS 100 l. Incubate the cells with 2 l dye PI (BD Biosciences. Cat. No. 556463) and 2 l anti-Annexin V-PE (BD Biosciences. Cat. No. 556421) at room temperature under the darkness for 30 minutes. Remove the antibodies by centrifugation at 1,000 rpm, 4° C. for 2 min Resuspend the cells in 200 l pre-cooled PBS Finally, load the cell suspension to the FACS machine to acquire the staining results: […]

[12] = target: CDK2 (Homo sapiens, UniProt P24941); experiment: Kinase assay CDK2; settings: read-out: Target biochemical activity IC50, CDK2
[13] = target: CDK7 (Homo sapiens, UniProt P50613); experiment: Kinase assay CDK7; settings: read-out: Target biochemical activity IC50, CDK7
[14] = target: SRC (Homo sapiens, UniProt P12931); experiment: Kinase assay SRC; settings: read-out: Target biochemical activity IC50, SRC
[15] = tested on: HeLa; experiment: Cellular effect in mammalian cells, HeLa; assay type: cell-based; settings: Homo sapiens
[16] = tested on: MCF-7; experiment: Cellular effect in mammalian cells, MCF-7; assay type: cell-based; settings: Homo sapiens, MCF7
[17] = tested on: H460; experiment: Cellular effect in mammalian cells, H460; assay type: cell-based; settings: Homo sapiens, NCI-H460
[18] = tested on: Jurkat; experiment: Cellular effect in mammalian cells, Jurkat; assay type: cell-based; settings: Homo sapiens
[19] = tested on: K562; experiment: Cellular effect in mammalian cells, K562; assay type: cell-based; settings: Homo sapiens
[20] = tested on: HCT116; experiment: Cellular effect in mammalian cells, HCT116; assay type: cell-based; settings: Homo sapiens, HCT-116
[21] = tested on: HepG2; experiment: Cellular effect in mammalian cells, HepG2; assay type: cell-based; settings: Homo sapiens
[22] = tested on: MRC-5; experiment: Cellular effect in mammalian cells, MRC-5; assay type: cell-based; settings: Homo sapiens, MRC5
[23] = target: Aurora B (Homo sapiens, UniProt Q96GD4); experiment: Kinase assay Aurora B; settings: read-out: Target biochemical activity IC50, Aurora B
Sequence of Aurora B (Q96GD4 whole entry): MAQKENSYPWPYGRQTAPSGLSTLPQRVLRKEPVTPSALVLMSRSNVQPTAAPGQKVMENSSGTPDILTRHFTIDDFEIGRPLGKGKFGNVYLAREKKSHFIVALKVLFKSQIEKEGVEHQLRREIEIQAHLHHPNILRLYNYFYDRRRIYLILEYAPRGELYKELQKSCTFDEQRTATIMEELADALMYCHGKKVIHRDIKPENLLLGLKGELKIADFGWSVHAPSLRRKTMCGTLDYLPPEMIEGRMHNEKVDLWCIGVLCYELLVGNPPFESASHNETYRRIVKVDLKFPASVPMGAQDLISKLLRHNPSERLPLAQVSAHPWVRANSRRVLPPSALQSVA

Sequence of SRC (P12931 whole entry, species assumed): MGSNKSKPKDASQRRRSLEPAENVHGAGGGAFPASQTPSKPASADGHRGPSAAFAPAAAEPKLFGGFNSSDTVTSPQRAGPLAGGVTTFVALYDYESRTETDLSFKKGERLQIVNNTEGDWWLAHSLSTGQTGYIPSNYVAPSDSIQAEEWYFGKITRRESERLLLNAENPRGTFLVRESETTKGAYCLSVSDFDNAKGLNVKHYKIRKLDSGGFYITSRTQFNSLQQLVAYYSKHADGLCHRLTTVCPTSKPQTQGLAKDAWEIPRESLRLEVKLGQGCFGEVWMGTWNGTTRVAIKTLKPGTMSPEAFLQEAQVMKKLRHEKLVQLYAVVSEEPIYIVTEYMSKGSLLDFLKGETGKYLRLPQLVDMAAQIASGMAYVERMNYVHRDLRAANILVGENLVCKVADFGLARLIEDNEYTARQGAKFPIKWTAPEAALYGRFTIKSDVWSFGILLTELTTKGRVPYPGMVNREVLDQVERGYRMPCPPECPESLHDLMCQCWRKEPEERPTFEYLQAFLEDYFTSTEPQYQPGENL
Sequence of CDK7 (P50613 whole entry, species assumed): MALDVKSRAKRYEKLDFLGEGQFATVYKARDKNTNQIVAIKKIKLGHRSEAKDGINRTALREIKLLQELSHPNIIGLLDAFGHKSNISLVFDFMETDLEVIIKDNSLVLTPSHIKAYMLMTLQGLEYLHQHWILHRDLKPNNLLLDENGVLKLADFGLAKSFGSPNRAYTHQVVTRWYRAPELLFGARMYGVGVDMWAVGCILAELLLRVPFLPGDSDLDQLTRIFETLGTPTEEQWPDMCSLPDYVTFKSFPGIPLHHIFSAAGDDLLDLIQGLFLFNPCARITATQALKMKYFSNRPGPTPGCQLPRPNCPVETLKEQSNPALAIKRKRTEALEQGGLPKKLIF
Sequence of CDK7 (P51946 whole entry partner, species assumed): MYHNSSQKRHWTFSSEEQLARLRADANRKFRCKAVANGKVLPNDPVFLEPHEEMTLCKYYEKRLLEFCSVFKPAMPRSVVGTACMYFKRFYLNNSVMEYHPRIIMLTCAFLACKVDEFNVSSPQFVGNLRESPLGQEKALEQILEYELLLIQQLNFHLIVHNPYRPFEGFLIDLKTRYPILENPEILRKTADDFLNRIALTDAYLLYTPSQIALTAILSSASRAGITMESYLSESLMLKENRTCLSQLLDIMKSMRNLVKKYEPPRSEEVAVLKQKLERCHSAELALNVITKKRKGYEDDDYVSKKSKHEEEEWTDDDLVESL
Sequence of CDK7 (P51948 whole entry partner, species assumed): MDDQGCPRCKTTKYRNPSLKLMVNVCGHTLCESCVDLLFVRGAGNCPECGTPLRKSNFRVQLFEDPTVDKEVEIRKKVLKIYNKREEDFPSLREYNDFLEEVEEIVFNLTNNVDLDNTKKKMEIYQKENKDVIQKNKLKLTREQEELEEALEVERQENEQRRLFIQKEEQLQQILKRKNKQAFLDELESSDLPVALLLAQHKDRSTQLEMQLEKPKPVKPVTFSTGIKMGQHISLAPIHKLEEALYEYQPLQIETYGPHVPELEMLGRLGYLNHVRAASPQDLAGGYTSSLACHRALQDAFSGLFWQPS

Structure (SMILES)	IC50 [1] [nM]	IC50 [2] [µM]	IC50 [3] [nM]	IC50 [4] [µM]	IC50 [15] [nM]	IC50 [16] [µM]	IC50 [18] [nM]	IC50 [19] [µM]	IC50 [20] [µM]	IC50 [22] [µM]	also measured
CCn1cc(-c2ccnc(Nc3cccc(S(N)(=O)=O)c3)n2)c2cccnc21 [Compound 18, 3-(4-(1-Ethyl-1H-pyrrolo[2,3-b]pyridin-3-yl)pyrimidin-2-ylamino)benzenesulfonamide]	> 10000	5.3	590	4.3	–	–	–	–	–	–	Induction of cell apoptosis [5]: induced apoptosis of cells; also recorded: induced cell apoptosis with dose-dependent manner; Inhibition of CDK9's activity on Pol II phosphorylation [6]: inhibited CDK9's activity on Pol II phosphorylation; LD50 at 2 weeks [7]: > 2000 mg/kg; MTD at 2 weeks [7]: > 500 mg/kg; Tolerability in animals [8]: excellent tolerability in animals; Oral availability (in words) [9]: good oral availability; Tumor growth inhibition (in words) [10]: able to inhibit tumor growth; Induction of neutrophil apoptosis compared with Roscovitine ([11]; 15 h, FIG. 5): stronger capability in inducing neutrophil apoptosis than Roscovitine; Apoptotic morphological changes of neutrophils ([11]; increasing dose (0.5, 2, 10 μM), FIG. 4): typical apoptotic morphological changes
CCn1cc(-c2ccnc(Nc3cccc(O)c3)n2)c2ccnc(Cl)c21 [SG48, 3-(4-(7-Chloro-1-ethyl-1H-pyrrolo[2,3-c]pyridin-3-yl)pyrimidin-2-ylamino)phenol]	140	> 10	8310	8.1	3310	9.4	1920	4.75	4.67	> 10	IC50 [12]: 4 nM; IC50 [13]: 3.28 µM; IC50 [14]: > 10 µM; IC50 [17]: 4.66 µM; IC50 [21]: 6.1 µM
CCn1cc(-c2ccnc(Nc3ccc(O)cc3)n2)c2ccnc(Cl)c21 [SG49, 4-(4-(7-Chloro-1-ethyl-1H-pyrrolo[2,3-c]pyridin-3-yl)pyrimidin-2-ylamino)phenol]	–	3.68	8590	7.34	2690	> 10	610	3.52	4.28	5.82	IC50 [17]: 2.95 µM; IC50 [21]: 5.55 µM
CCn1cc(-c2ccnc(Nc3cccc(S(N)(=O)=O)c3)n2)c2ccnc(Cl)c21 [SG50, 3-(4-(7-Chloro-1-ethyl-1H-pyrrolo[2,3-c]pyridin-3-yl)pyrimidin-2-ylamino)benzenesulfonamide]	520	–	1160	–	230	0.45	400	0.61	0.28	3.36	IC50 [12]: 4 nM; IC50 [13]: > 10 µM; IC50 [23]: > 10 µM; IC50 [14]: > 10 µM
CCCn1cc(-c2ccnc(Nc3cccc(S(N)(=O)=O)c3)n2)c2ccncc21 [SG51, 3-(4-(1-Propyl-1H-pyrrolo[2,3-c]pyridin-3-yl)pyrimidin-2-ylamino)benzenesulfonamide]	–	–	–	–	–	–	5	–	–	–	–
CCCn1cc(-c2ccnc(Nc3ccc(C)c(S(=O)(=O)N4CCOCC4)c3)n2)c2ccncc21 [SG52, N-(4-Methyl-3-(morpholinosulfonyl)phenyl)-4-(1-propyl-1H-pyrrolo[2,3-c]pyridin-3-yl)pyrimidin-2-amine]	–	–	–	1.4	–	–	–	–	–	–	–
CCCn1cc(-c2ccnc(Nc3cccc(S(N)(=O)=O)c3)n2)c2nc(Cl)cc(C)c21 [SG53, 3-(4-(5-Chloro-7-methyl-1-propyl-1H-pyrrolo[3,2-b]pyridin-3-yl)pyrimidin-2-ylamino)benzenesulfonamide]	–	–	250	–	–	–	–	–	3.56	–	–
CCCn1cc(-c2ccnc(Nc3ccc(S(N)(=O)=O)cc3)n2)c2nc(Cl)cc(C)c21 [SG54, 4-(4-(5-Chloro-7-methyl-1-propyl-1H-pyrrolo[3,2-b]pyridin-3-yl)pyrimidin-2-ylamino)benzenesulfonamide]	–	–	–	8.37	–	–	–	–	–	–	–
